Holding throughout (assay type): cell-based
The subject of series [1] is spermatozoa. As to the kind of experiment: total spermicidal test of IPPF (death of all spermatozoa of 0.2 ml sperm in less than 5 seconds). The conditions noted are these: for MIC: 5 seconds. The procedure: The MIC of a chemical compound depends on this compound, but also on the conditions in which it is used, i.e. on the galenical form including the composition.
(§1) The test is carried out on at least 6 sperms from various donors, satisfying the following minimal conditions from IPPF:
age of the sample: two hours;
[…] : 50 million spermatozoa;
mobility: 50% of the spermatozoa should move forward fastly when examined at 35°-37° C. in a recent sample;
viscosity: ejaculum conveniently liquefied, not filaceous and homogeneous-looking with the naked eye;
collected in sterile glass tubes hermetically closed, preserved at 37° C.
The MIC of various known spermicidal compounds were determined with the IPPF test. The following results have been obtained by 1 milliliter of composition reacting with 0.2 milliliter of sperm and by determining the minimal concentration of the spermicidal compounds that induces the death of all the spermatozoa in 5 seconds, and this with 6 sperms from various donors.
The same total spermicidal test of IPPF was carried out with 1 milliliter of composition already containing 0.0001% (in weight) of fluoride anion F^- reacting upon 0.2 milliliter of sperm, by determining the minimal concentration of the spermicidal compounds that induces the death of all the spermatozoa in 5 seconds, and this with 6 sperms from various donors.
This test consists in realizing a test identical to tests N^.
Under the same conditions previously described (Tests N^. 1 to 3), various perfluorinated benzalkonium chlorides were used as basic spermicidal compounds. It was thus shown that perfluorinated benzalkonium chlorides have a spermicide activity similar to the one of the mere benzalkonium chloride. Besides, this activity remains identical to itself under the conditions of test N^.
Test N^. 2 was also realized on perfluorinated benzalkonium chloride mixed with another chemical compound capable of emitting ion F^-.

The test system of series [2] is spermatozoa. As to the kind of experiment: IPPF spermicidal test on galenical preparations after in vitro simulation of in vivo conditions. The following applies: Test 6, form originally containing 0.45% F^-. As to the method: as §1
This test in vitro was conducted on galenical preparations including benzalkonium chloride as basic active ingredient, by determining the MIC of this benzalkonium chloride after simulation in vitro of the actual conditions in vivo (extraction, solubilization . . . ).
The percentages correspond to the proportions (in weight) of benzalkonium chloride in the solution used in vitro for the spermicidal test according to IPPF and obtained after simulation, the proportions being measured by titrating using a sample taken off from the solution.
The same conditions as during the comparative test N^. 5 were used, but from galenical forms each originally containing 0.45% (in weight) of fluoride anion F^-.

Series [3] deals with cells. As to the kind of experiment: Cell toxicity (Test 16). The conditions noted are these: cytomegalo virus section. The source says: The following results were obtained:
For another series, the system named is poliomyelitis virus. The conditions noted are these: LiF, where present, 1 mg/l.
Series [4] concerns cells. As to the kind of experiment: Study of threshold of cytotoxicity (LDO).
The subject of series [5] is spermatozoa. As to the kind of experiment: IPPF spermicidal test on galenical preparations after in vitro simulation of in vivo conditions. The conditions noted are these: Test 5, without activating ingredient.
[6] abbreviates: Test 1, without F^-, 6 sperms from various donors.
[7] abbreviates: Test 2, composition already containing 0.0001% (in weight) fluoride anion F^-, 6 sperms.
[8] abbreviates: final concentration 20 mg/l, contact time 180 min.
Where [9] appears, read: final concentration 50 mg/l, contact time 180 min.
Where [10] appears, read: final concentration 100 mg/l, contact time 30 min.
Where [11] appears, read: final concentration 100 mg/l, contact time 60 min.
The mark [12] stands for this setting: final concentration 100 mg/l, contact time 120 min.
Setting [13] is: final concentration 100 mg/l, contact time 180 min.

Read-outs that look alike come from different tables or passages of the source.

Take nonoxynol 9: the MIC with spermatozoa [1] (setting [6]) amounted to 0.006 % in weight; in the series with spermatozoa [1] (setting [7]), 0.003 % in weight.

For Benzalkonium chloride, the “MIC of benzalkonium chloride” value is 0.0030 % in weight with spermatozoa [2] (galenical form: cream); 0.0033 % in weight in the series with spermatozoa [2] (galenical form: gel); 0.0023 % in weight with spermatozoa [2] (galenical form: ovule); 0.0017 % in weight in the series with spermatozoa [2] (galenical form: soluble waffle); 0.0025 % in weight in the series on spermatozoa [2] (galenical form: tablet); 0.0025 % in weight with spermatozoa [2] (galenical form: tampon). The “MIC of benzalkonium chloride” value in the series on spermatozoa [5] (galenical form: cream) was 0.0083 % in weight; in the series with spermatozoa [5] (galenical form: gel) it was 0.0080 % in weight; in the series with spermatozoa [5] (galenical form: ovule), 0.0063 % in weight; in the series with spermatozoa [5] (galenical form: soluble waffle) it was 0.0080 % in weight; in the series on spermatozoa [5] (galenical form: tablet), 0.0095 % in weight; in the series with spermatozoa [5] (galenical form: tampon), 0.0075 % in weight. Besides, the “Cell Toxicity” value in the series with cells [3] was 0.05%. Moreover, the Viral titre result in the series with poliomyelitis virus (final concentration 10 mg/l, contact time 180 min) is recorded as “≈ 0 PFU/ml”; in the series with poliomyelitis virus (setting [8]), 0 PFU/ml; in the series on poliomyelitis virus (setting [9]), 0 PFU/ml; in the series with poliomyelitis virus (setting [10]) it was 0 PFU/ml; with poliomyelitis virus (setting [11]), 0 PFU/ml; with poliomyelitis virus (setting [12]), 0 PFU/ml. In the series with poliomyelitis virus (setting [13]), this compound displayed a Viral titre of 0 PFU/ml. In addition, the MIC was 0.006 % in weight against spermatozoa [1] (setting [6]) and 0.002 % in weight in the series with spermatozoa [1] (setting [7]). The “total spermicide activity according to the IPPF test” value in the series on spermatozoa [1] (solution containing 0.003% benzalkonium chloride alone) is listed as “do not have a total spermicide activity”. Moreover, the entries for the “threshold of cytotoxicity (LDO)” value in the series with cells [4] (after filtration) and with cells [4] (before filtration) were 0.01% and 0.05%, respectively.

In the case of Benzalkonium fluoride, the “Cell Toxicity” value with cells [3] is 0.05%. Moreover, the Viral titre with poliomyelitis virus (setting [8]) was 0 PFU/ml; with poliomyelitis virus (final concentration 50 mg/l, contact time 120 min), 0 PFU/ml; with poliomyelitis virus (setting [9]), 0 PFU/ml; in the series on poliomyelitis virus (setting [10]), 0 PFU/ml; in the series on poliomyelitis virus (setting [11]) it was 0 PFU/ml; in the series with poliomyelitis virus (setting [12]), 0 PFU/ml. Further, in the series on poliomyelitis virus (setting [13]), the Viral titre was 0 PFU/ml. The “threshold of cytotoxicity (LDO)” value was 0.005% in the series with cells [4] (after filtration) and 0.01% with cells [4] (before filtration).

Consider p-menthanylphenylpolyoxyethylene ether, for which the figures for the MIC against spermatozoa [1] (setting [6]) and with spermatozoa [1] (setting [7]) were 0.006 % in weight and 0.003 % in weight, respectively.

As to `F` [fluoride anion F^-], the spermicide activity with spermatozoa [1] (IPPF test, at a titer of 5 ppm (5 milligrams per liter), 0.0833333 min) stood at 100%. For the same compound, the “spermicidal effect in presence of sodium borate” value in the series with spermatozoa [1] (Test 3, sodium borate to complex ion F^-) is reported as “totally disappeared”. Moreover, the “total spermicide activity according to the IPPF test” value in the series on spermatozoa [1] (solution containing 0.0001% fluoride anion F^- alone) is listed as “do not have a total spermicide activity”.

The record behind these values is patent US5458889A (priority 1986, dated 1995).
